Assay results as given in patent publication US10647654B2, “Glucose transport inhibitors and methods of using same” (OHIO UNIVERSITY, priority 2016, dated 2020).

Tests used:
Assay type in all cases: cell-based
A549 cells = assay: MTT cell proliferation assay in A549 lung cancer cells; settings: Homo sapiens, DMSO treated cells as negative control, read-out: Cell Growth Inhibition in A549 Cells (at 30 μM)
Protocol: (§1) Compounds EKB-1, EKB-2, EKB-3, EKB-4, JDB-1, and JDB-2 were assayed for their ability to inhibit glucose uptake and cell growth in A549 lung cancer cell lines. A standard glucose uptake assay may be used to evaluate glucose uptake inhibition, and an MTT cell proliferation assay may be used to evaluate cancer cell growth inhibition. […] DMSO treated cells served as the negative control. […] Again, DMSO treated cells served as the negative control.

[1] = tested on: basal glucose transport in A549 cells; assay: standard glucose uptake assay in A549 lung cancer cells; settings: Homo sapiens, DMSO treated cells as negative control
Protocol: as §1

H1299 cells = assay: MTT cell proliferation assay in H1299 lung cancer cells; settings: Homo sapiens, NCI-H1299, DMSO treated cells as negative control, read-out: Cell Growth Inhibition in H1299 Cells (at 30 μM)
Protocol: (§2) Compounds EKB-3 and EKB-4 were assayed for their ability to inhibit glucose uptake and cell growth in H1299 lung cancer cell lines. A standard glucose uptake assay may be used to evaluate glucose uptake inhibition, and an MTT cell proliferation assay may be used to evaluate cancer cell growth inhibition. […] DMSO treated cells served as the negative control. […] Again, DMSO treated cells served as the negative control. The glucose uptake inhibition and cell growth inhibition of comparative compound WZB-134 in H1299 cells is also provided in Table 2.

[2] = tested on: basal glucose transport in H1299 cells; assay: standard glucose uptake assay in H1299 lung cancer cells; settings: Homo sapiens, NCI-H1299, DMSO treated cells as negative control
Protocol: as §2

| SMILES | inhibition at 30 µM (A549 cells) | inhibition at 30 µM [1] | inhibition at 30 µM (H1299 cells) | inhibition at 30 µM [2] |
| --- | --- | --- | --- | --- |
| COC(=O)C(Oc1cc(Cl)ccc1OCc1cccc(O)c1)c1cccc(OC)c1 (stereo not shown) [JDB-1] | 24.6% | 19.7% |  |  |
| Oc1cccc(COc2cccc(F)c2OCc2cccc(O)c2)c1 [WZB-134, reference compound] | 10% | 96% | 10.6% | 92.5% |
| COC(=O)C(Oc1ccc(Cl)cc1OCc1cccc(O)c1)c1cccc(O)c1 (stereo not shown) [EKB-2] | 51.5% | 56.1% |  |  |
| COC(=O)C(Oc1cc(Cl)ccc1OCc1cccc(O)c1)c1cccc(O)c1 (stereo not shown) [EKB-1] | 62.2% | 54.3% |  |  |
| COc1cccc(C(CO)Oc2cc(Cl)ccc2OCc2cccc(O)c2)c1 (stereo not shown) [JDB-2] | 39.7% | 34.8% |  |  |
| OCC(Oc1ccc(Cl)cc1OCc1cccc(O)c1)c1cccc(O)c1 (stereo not shown) [EKB-3] | 55.5% | 62.8% | 54% | 90.5% |
